Tested on: AT8-positive phosphorylated tau
Assay: Actin polymerization inhibitor on phosphorylated tau in primary cortical neurons from fetal mouse brain electroporated in utero with FLNA, fluorescent immunostaining
Type: cell-based
Details: wild-type FLNA introduced at E14, primary cortical neurons collected at E15, 2 DIV; compared with 0.1% DMSO (control)
Excerpt: FIG. 17-2: Continued from FIG. 17. (b): Each plasmid was introduced into a fetal mouse brain in a mouse at 14 days of gestation (E14) by in utero electroporation, and primary cortical neurons were collected at 15 days of gestation (E15), followed by 2-day cell culture (2 DIV) and then fluorescent immunostaining. At the time of administration of 0.1% DMSO (control), the expression level of AT8-positive phosphorylated tau was increased because of wild-type FLNA (FLNA^WT) but not at the time of administration of an actin polymerization inhibitor cytochalasin D (CytoD). The multiple asterisks “***” indicate a Tukey's test P value of less than 0.001.
The FLNA gene was induced into the brain of a fetal mouse in a mouse at 14 days of gestation (E14).

C=C1[C@@H](C)[C@H]2[C@H](Cc3ccccc3)NC(=O)[C@]23[C@H](OC(C)=O)/C=C/[C@@](C)(O)C(=O)[C@@H](C)C/C=C/[C@H]3[C@@H]1O [cytochalasin D (CytoD)]
expression level of AT8-positive phosphorylated tau: did not cause an increase

Source: US20230045629A1, “TREATMENT OF PROGRESSIVE SUPRANUCLEAR PALSY” (NATIONAL UNIVERSITY CORPORATION TOKAI NATIONAL HIGHER …, priority 2020, published 2023)
